One data set concerns the target T1, PaD2HGDH (Pseudomonas aeruginosa, UniProt Q9I6H4).
T1 construct: gene PA0317; full-length wild type, C-terminal 6x-His tag kept, pET20b(+), expressed in E. coli Rosetta(DE3)pLysS, Ni-NTA purified
T1 sequence (Q9I6H4 1-464): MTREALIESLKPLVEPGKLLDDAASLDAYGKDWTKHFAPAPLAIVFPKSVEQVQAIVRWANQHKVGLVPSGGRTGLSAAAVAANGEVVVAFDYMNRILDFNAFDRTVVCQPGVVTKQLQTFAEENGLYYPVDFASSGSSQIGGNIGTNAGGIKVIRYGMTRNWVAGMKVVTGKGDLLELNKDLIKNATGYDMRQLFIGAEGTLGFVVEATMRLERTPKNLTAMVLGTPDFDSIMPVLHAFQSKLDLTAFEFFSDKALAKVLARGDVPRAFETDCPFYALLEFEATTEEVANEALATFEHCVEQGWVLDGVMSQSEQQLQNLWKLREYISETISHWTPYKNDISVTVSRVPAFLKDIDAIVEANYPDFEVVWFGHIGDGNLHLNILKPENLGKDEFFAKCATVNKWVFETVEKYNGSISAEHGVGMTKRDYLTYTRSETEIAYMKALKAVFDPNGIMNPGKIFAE
In words: PMS-driven oxygen consumption, initial rates, steady-state inhibition. Format: biochemical. Conditions: read-out: Kis. An excerpt: PMS-driven oxygen consumption, initial rates, steady-state inhibition on PaD2HGDH

Substrate in data set [1]: O=C(O)C[C@@H](O)C(=O)O
In words: PMS-driven oxygen consumption, initial rates, global fit of inhibition data. Format: biochemical, Pseudomonas aeruginosa. Conditions: fitted in the oxaloacetate inhibition assay (Ka extrapolated to no inhibitor), D-malate 1-60 mM, 1 mM PMS, 25 mM NaPO4 pH 7.4, 25 °C. An excerpt: PMS-driven oxygen consumption, initial rates, global fit of inhibition data on PaD2HGDH

In the case of `O=C(O)C(O)C(=O)O` [Tartronate], on PaD2HGDH, the Ki was found to be 18.6 ± 1.3 mM.

`O=C(O)CCC(=O)C(=O)O` [2-Ketoglutarate]: the Ki on PaD2HGDH was found to be 4.3 ± 0.3 mM. Regarding `O=C(O)CC(C(=O)O)C(O)C(=O)O` (racemic) [D/L-Isocitrate], on PaD2HGDH, the Ki is 7.8 ± 0.4 mM.

Take `O=C(O)C(O)c1ccc(O)cc1` (racemic) [D/L-4-Hydroxymandelate]: the Ki at PaD2HGDH came out at 6.5 ± 0.7 mM. Same read-out and setting: for `O=C(O)C(O)c1ccc(O)c(O)c1` (racemic) [D/L-3,4-Dihydroxymandelate] the value was 4.1 ± 0.3 mM; for `O=C(O)CC(=O)C(=O)O` [Oxaloacetate], 2.02 ± 0.03 mM; for `O=C(O)[C@H](O)c1ccccc1` [D-Mandelate], 18.4 ± 0.6 mM.

Turning to `O=C(O)C[C@H](O)C(=O)O` [L-Malate], the Ki on PaD2HGDH turned out to be 14.6 ± 1.5 mM. On the same count and under the same terms, for `O=C(O)CC[C@H](O)C(=O)O` [L-2-Hydroxyglutarate] the value was 4.1 ± 0.4 mM.

B1: PaD2HGDH (Pseudomonas aeruginosa PAO1) (protein)
chain: T1 sequence (Q9I6H4 1-464)
notes: full-length wild type, C-terminal 6x-His tag kept, pET20b(+), expressed in E. coli Rosetta(DE3)pLysS, Ni-NTA purified
Consider B1, for which, in data set [1], the Michaelis-Menten constant (Km) is listed as 8.4 ± 0.1 mM and the turnover number (kcat) is 29.1 ± 0.1 s⁻¹.

The Km is the substrate concentration at which the rate is half of its maximum. For orientation: kcat means the number of substrate molecules converted per active site and unit of time at saturation.

The record behind these values is article PMC12509308, “Stereochemistry and Charged State Influence Effector Outcomes of D‑2-Hydroxyglutarate Dehydrogenase Ligands” (Biochemistry, 2025).
